Measurements as given in US12723063B2, “GIPR-agonist compounds” (Eli Lilly and Company, priority 2019, dated 2026).
*1 amine or outer side, *2 acyl side, *3 side chain or, on linkers, in order; H or OH if unused. Where a SMILES comes first, the peptide text is derived from it. Side-chain parts run from the residue outwards. [ ]: non-standard residue; d: D form. The star is where a group is joined. C20 diacid = O=C(O)CCCCCCCCCCCCCCCCCCC(=O)*; αMePhe(2-F) = C[C@](N)(Cc1ccccc1F)C(=O)O; γGlu = O=C(O)[C@H](CCC(=O)[*:2])N[*:1]; 4Pal = N[C@@H](Cc1ccncc1)C(=O)O; αMeL = CC(C)C[C@](C)(N)C(=O)O; Iva = CC[C@](C)(N)C(=O)O; AEEA = NCCOCCOCC(=O)O; Aib = CC(C)(N)C(=O)O

The compounds below were run against T1, human GLP-1R (Homo sapiens, UniProt P43220) (assay: [125I]-GLP-1 binding, SPA with WGA beads, 0.1% bacitracin). Settings: geometric mean, read-out: hGLP1R Ki.
T1 construct: expressed in transfected cells; crude membranes
Experimental: Stably transfected cell lines are prepared by subcloning receptor cDNA into a pcDNA3 expression plasmid and transfected into human embryonic kidney (HEK) 293 (hGcgR and hGLP-1R) or Chinese Hamster Ovary (CHO) (hGIPR) cells followed by selection with Geneticin (hGLP-1R and hGIPR) or hygromycin B (hGcgR).
Two methods are used for the preparation of crude cell membranes.
Method 1: Frozen cell pellets are lysed on ice in hypotonic buffer containing 50 mM Tris HCl, pH 7.5, and Roche Complete™ Protease Inhibitors with EDTA. The cell suspension is disrupted using a glass Potter-Elvehjem homogenizer fitted with a Teflon® pestle for 25 strokes. The homogenate is centrifuged at 4° C. at 1100× g for 10 minutes. The supernatant is collected and stored on ice while the pellets are resuspended in homogenization buffer and rehomogenized as described above. The homogenate is centrifuged at 1100× g for 10 minutes. The second supernatant is combined with the first supernatant and centrifuged at 35000× g for 1 hour at 4° C. The resulting membrane pellet is resuspended in homogenization buffer containing protease inhibitors at approximately 1 to 3 mg/mL, quick frozen in liquid nitrogen and stored as aliquots in a −80° C. freezer until use.
Method 2: Frozen cell pellets are lysed on ice in hypotonic buffer containing 50 mM Tris HCl, pH 7.5, 1 mM MgCl2, Roche Complete™ EDTA-free Protease Inhibitors and 25 units/mL DNAse I (Invitrogen). The cell suspension is disrupted using a glass Potter-Elvehjem homogenizer fitted with a Teflon® pestle for 20 to 25 strokes. The homogenate is centrifuged at 4° C. at 1800× g for 15 minutes. The supernatant is collected and stored on ice while the pellets are resuspended in homogenization buffer (without DNAse I) and rehomogenized as described above. The homogenate is centrifuged at 1800× g for 15 minutes. The second supernatant is combined with the first supernatant and centrifuged an additional time at 1800× g for 15 minutes. The overall supernatant is then centrifuged at 25000× g for 30 minutes at 4° C. The resulting membrane pellet is resuspended in homogenization buffer (without DNAse I) containing protease inhibitors at approximately 1 to 3 mg/mL and stored as aliquots in a −80° C. freezer until use.
The binding buffer contains 25 mM HEPES, pH 7.4, 2.5 mM CaCl2), 1 mM MgCl2, 0.1% (w/v) bacitracin, 0.003% (w/v) TWEEN®-20, and Roche Complete™ Protease Inhibitors without EDTA.
Data are analyzed using four-parameter (curve maximum, curve minimum, IC50, Hill slope) nonlinear regression routines (Genedata Screener, version 12.0.4, Genedata AG, Basal, Switzerland). […] Values for Ki are reported as the geometric mean, with error expressed as the standard error of the mean (SEM) and n is equal to the number of independent replicates (determined in assays performed on different days). […] SEM is only calculated when […] or greater. Means are expressed as geometric means with the standard error of the mean (SEM) and the number of replicates (n) indicated in parentheses.

T1 sequence (P43220 24-463): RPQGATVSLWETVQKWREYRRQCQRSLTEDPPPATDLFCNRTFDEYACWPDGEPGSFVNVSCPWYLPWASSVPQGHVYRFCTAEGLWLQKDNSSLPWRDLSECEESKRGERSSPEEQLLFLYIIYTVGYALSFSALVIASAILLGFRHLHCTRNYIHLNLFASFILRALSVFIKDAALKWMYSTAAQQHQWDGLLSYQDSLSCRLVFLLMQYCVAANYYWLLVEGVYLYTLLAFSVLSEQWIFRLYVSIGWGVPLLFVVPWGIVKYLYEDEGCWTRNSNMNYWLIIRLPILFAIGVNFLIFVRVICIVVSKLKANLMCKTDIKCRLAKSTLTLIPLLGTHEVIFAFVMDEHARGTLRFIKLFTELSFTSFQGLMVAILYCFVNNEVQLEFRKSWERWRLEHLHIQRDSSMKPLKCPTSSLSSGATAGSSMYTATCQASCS

Compared with `CC[C@H](C)[C@H](NC(=O)[C@H](CO)NC(=O)[C@H](Cc1ccc(O)cc1)NC(=O)[C@H](CC(=O)O)NC(=O)[C@H](CO)NC(=O)[C@@H](NC(=O)[C@](C)(Cc1ccccc1F)NC(=O)[C@@H](NC(=O)CNC(=O)[C@H](CCC(=O)O)NC(=O)C(C)(C)NC(=O)[C@@H](N)Cc1ccc(O)cc1)[C@@H](C)O)[C@@H](C)CC)C(=O)N[C@@H](C)C(=O)N[C@@H](CC(C)C)C(=O)N[C@@H](CC(=O)O)C(=O)N[C@@H](CCCCN)C(=O)N[C@H](C(=O)N[C@@H](Cc1c[nH]cn1)C(=O)N[C@@H](CCC(N)=O)C(=O)NC(C)(C)C(=O)N[C@@H](CCC(=O)O)C(=O)N[C@@H](Cc1ccccc1)C(=O)N[C@H](C(=O)N[C@@H](CC(N)=O)C(=O)N[C@@H](Cc1ccc(O)cc1)C(=O)N[C@@H](CCCCNC(=O)COCCOCCNC(=O)COCCOCCNC(=O)CC[C@H](NC(=O)CCCCCCCCCCCCCCCCCCC(=O)O)C(=O)O)C(=O)N[C@@H](CC(C)C)C(=O)N[C@@H](C)C(=O)NCC(=O)NCC(=O)N1CCC[C@H]1C(=O)N[C@@H](CO)C(=O)N[C@@H](CO)C(=O)NCC(=O)N[C@@H](C)C(=O)N1CCC[C@H]1C(=O)N1CCC[C@H]1C(=O)N1CCC[C@H]1C(=O)N[C@@H](CO)C(N)=O)C(C)C)[C@@H](C)CC` [Example 98] (H-Y[Aib]EGT[αMePhe(2-F)]ISDYSIALDKIHQ[Aib]EFVNYK([AEEA-AEEA-γGlu-C20 diacid])LAGGPSSGAPPPS-NH2), `CC[C@H](C)[C@H](NC(=O)[C@H](CCCCN)NC(=O)[C@H](CC(=O)O)NC(=O)[C@H](CC(C)C)NC(=O)[C@](C)(CC(C)C)NC(=O)[C@@H](NC(=O)[C@H](CO)NC(=O)[C@H](Cc1ccc(O)cc1)NC(=O)[C@H](CC(=O)O)NC(=O)[C@H](CO)NC(=O)[C@@H](NC(=O)[C@H](Cc1ccccc1)NC(=O)[C@@H](NC(=O)CNC(=O)[C@H](CCC(=O)O)NC(=O)C(C)(C)NC(=O)[C@@H](N)Cc1ccc(O)cc1)[C@@H](C)O)[C@@H](C)CC)[C@@H](C)CC)C(=O)N[C@@H](Cc1c[nH]cn1)C(=O)N[C@@H](CCC(N)=O)C(=O)NC(C)(C)C(=O)N[C@@H](CC(=O)O)C(=O)N[C@@H](Cc1ccccc1)C(=O)N[C@H](C(=O)N[C@@H](CCC(=O)O)C(=O)N[C@@H](Cc1ccc(O)cc1)C(=O)N[C@@H](CCCCNC(=O)COCCOCCNC(=O)COCCOCCNC(=O)CC[C@H](NC(=O)CCCCCCCCCCCCCCCCCCC(=O)O)C(=O)O)C(=O)N[C@@H](CC(C)C)C(=O)N[C@@H](CCC(=O)O)C(=O)N[C@@H](C)C(=O)NCC(=O)N1CCC[C@H]1C(=O)N[C@@H](CO)C(=O)N[C@@H](CO)C(=O)NCC(=O)N[C@@H](C)C(=O)N1CCC[C@H]1C(=O)N1CCC[C@H]1C(=O)N1CCC[C@H]1C(=O)N[C@@H](CO)C(N)=O)C(C)C` [Example 117] (H-Y[Aib]EGTFISDYSI[αMeL]LDKIHQ[Aib]DFVEYK([AEEA-AEEA-γGlu-C20 diacid])LEAGPSSGAPPPS-NH2) is 1.9-fold higher in Ki: 311 nM for the first, 591 nM for the second.

`CC[C@H](C)[C@H](NC(=O)[C@H](CO)NC(=O)[C@H](Cc1ccc(O)cc1)NC(=O)[C@H](CC(=O)O)NC(=O)[C@H](CO)NC(=O)[C@@H](NC(=O)[C@](C)(CC)NC(=O)[C@@H](NC(=O)CNC(=O)[C@H](CCC(=O)O)NC(=O)C(C)(C)NC(=O)[C@@H](N)Cc1ccc(O)cc1)[C@@H](C)O)[C@@H](C)CC)C(=O)N[C@@](C)(CC(C)C)C(=O)N[C@@H](CC(C)C)C(=O)N[C@@H](CC(=O)O)C(=O)N[C@@H](CCCCN)C(=O)N[C@@H](CCCCNC(=O)COCCOCCNC(=O)COCCOCCNC(=O)CC[C@H](NC(=O)CCCCCCCCCCCCCCCCCCC(=O)O)C(=O)O)C(=O)N[C@@H](Cc1c[nH]cn1)C(=O)N[C@@H](CCC(N)=O)C(=O)NC(C)(C)C(=O)N[C@@H](CC(=O)O)C(=O)N[C@@H](Cc1ccccc1)C(=O)N[C@H](C(=O)N[C@@H](CCC(=O)O)C(=O)N[C@@H](Cc1ccncc1)C(=O)N[C@@H](CC(C)C)C(=O)N[C@@H](CC(C)C)C(=O)N[C@@H](CCC(=O)O)C(=O)NCC(=O)NCC(=O)N1CCC[C@H]1C(=O)N[C@@H](CO)C(=O)N[C@@H](CO)C(=O)NCC(=O)N[C@@H](C)C(=O)N1CCC[C@H]1C(=O)N1CCC[C@H]1C(=O)N1CCC[C@H]1C(=O)N[C@@H](CO)C(N)=O)C(C)C` [Example 74] (H-Y[Aib]EGT[Iva]ISDYSI[αMeL]LDKK([AEEA-AEEA-γGlu-C20 diacid])HQ[Aib]DFVE[4Pal]LLEGGPSSGAPPPS-NH2) and `CC[C@H](C)[C@H](NC(=O)[C@H](CO)NC(=O)[C@H](Cc1ccc(O)cc1)NC(=O)[C@H](CC(=O)O)NC(=O)[C@H](CO)NC(=O)[C@@H](NC(=O)[C@H](Cc1ccccc1)NC(=O)[C@@H](NC(=O)CNC(=O)[C@H](CCC(=O)O)NC(=O)[C@@H](C)NC(=O)[C@@H](N)Cc1ccc(O)cc1)[C@@H](C)O)[C@@H](C)CC)C(=O)N[C@@H](CC(C)C)C(=O)N[C@@H](CC(C)C)C(=O)N[C@@H](CC(=O)O)C(=O)N[C@@H](CCCCN)C(=O)N[C@@H](CCCCNC(=O)COCCOCCNC(=O)COCCOCCNC(=O)CC[C@H](NC(=O)CCCCCCCCCCCCCCCCCCC(=O)O)C(=O)O)C(=O)N[C@@H](Cc1c[nH]cn1)C(=O)N[C@@H](CCC(N)=O)C(=O)N[C@@H](CCC(N)=O)C(=O)N[C@@H](CC(=O)O)C(=O)N[C@@H](Cc1ccccc1)C(=O)N[C@H](C(=O)N[C@@H](CCC(=O)O)C(=O)N[C@@H](Cc1c[nH]c2ccccc12)C(=O)N[C@@H](CC(C)C)C(=O)N[C@@H](CC(C)C)C(=O)N[C@@H](C)C(=O)N[C@@H](CCC(N)=O)C(=O)NCC(=O)N1CCC[C@H]1C(=O)N[C@@H](CO)C(=O)N[C@@H](CO)C(=O)NCC(=O)N[C@@H](C)C(=O)N1CCC[C@H]1C(=O)N1CCC[C@H]1C(=O)N1CCC[C@H]1C(=O)N[C@@H](CO)C(N)=O)C(C)C` [Example 14] (H-Y[dA]EGTFISDYSILLDKK([AEEA-AEEA-γGlu-C20 diacid])HQQDFVEWLLAQGPSSGAPPPS-NH2) cannot be ordered by Ki: 395 nM for the first, > 213 nM for the second.

`CC[C@H](C)[C@H](NC(=O)[C@H](CO)NC(=O)[C@H](Cc1ccc(O)cc1)NC(=O)[C@H](CC(=O)O)NC(=O)[C@H](CO)NC(=O)[C@@H](NC(=O)[C@H](Cc1ccccc1)NC(=O)[C@@H](NC(=O)CNC(=O)[C@H](CCC(=O)O)NC(=O)[C@@H](C)NC(=O)[C@@H](N)Cc1ccc(O)cc1)[C@@H](C)O)[C@@H](C)CC)C(=O)N[C@@H](CC(C)C)C(=O)N[C@@H](CC(C)C)C(=O)N[C@@H](CC(=O)O)C(=O)N[C@@H](CCCCN)C(=O)N[C@@H](CCCCNC(=O)COCCOCCNC(=O)COCCOCCNC(=O)CC[C@H](NC(=O)CCCCCCCCCCCCCCCCCCC(=O)O)C(=O)O)C(=O)N[C@@H](C)C(=O)N[C@@H](CCC(N)=O)C(=O)N[C@@H](CCC(N)=O)C(=O)N[C@@H](CC(=O)O)C(=O)N[C@@H](Cc1ccccc1)C(=O)N[C@H](C(=O)N[C@@H](CC(N)=O)C(=O)N[C@@H](Cc1c[nH]c2ccccc12)C(=O)N[C@@H](CC(C)C)C(=O)N[C@@H](CC(C)C)C(=O)N[C@@H](C)C(=O)NCC(=O)NCC(=O)N1CCC[C@H]1C(=O)N[C@@H](CO)C(=O)N[C@@H](CO)C(=O)NCC(=O)N[C@@H](C)C(=O)N1CCC[C@H]1C(=O)N1CCC[C@H]1C(=O)N1CCC[C@H]1C(=O)N[C@@H](CO)C(N)=O)C(C)C` [Example 12] (H-Y[dA]EGTFISDYSILLDKK([AEEA-AEEA-γGlu-C20 diacid])AQQDFVNWLLAGGPSSGAPPPS-NH2) was tested, and the Ki was 46.8 nM.
